These results are taken from paper PMC6149971, “In Vivo and In Vitro Activities and ADME-Tox Profile of a Quinolizidine-Modified 4-Aminoquinoline: A Potent Anti-P. falciparum and Anti-P. vivax Blood-Stage Antimalarial” (Molecules : A Journal of Synthetic Chemistry and Natural …, 2017).

As a reminder, the IC50 is the concentration at which inhibition is half-maximal. As a reminder, the AUC(0-t) is the area under the concentration-time curve up to a stated or last time point. The term Cmax denotes the peak of the concentration-time curve. The MRT last is the average time that molecules of a dose stay in the body. By Tmax is commonly meant the time from dosing to the highest level.

In series [1] the test system is P. falciparum TM91C235 (multidrug-resistant). Briefly: In vitro chemosensitivity assay (pLDH), TM91C235 strain. To be noted: Plasmodium falciparum; 72 h incubation, pLDH method, mean of 3 experiments; read-out: P. falciparum IC50, TM91C235. The class given is cell-based.
The next series has as its system P. falciparum W-2 (CQ-R). Also noted: method as in PMID 22901673. To be noted: 72 h incubation, pLDH method, mean of 3 experiments; data already published; cited from earlier work.
A short description of series [2]: Microsome stability and metabolism studies, rat. It counts as in vitro ADME. Also noted: key: +: Metabolic Products Detected In Vitro and In Vivo; ND: Not detectable. To be noted: (−)-AM1 1 μM, at 30 min. Here is the method: Samples from the metabolic stability and metabolism studies were analyzed under the following conditions: UPLC interfaced with a Premiere XE triple Quadrupole Waters for stability studies, and Bruker Daltonics Ion Trap HCT Ultra for metabolic studies. A gradient from 2% to 100% (Water, MeOH, 5 mM Ammonium Acetate) over 2 min (stability) or 12 min (metabolism) in a C18 BEH (dimensions 1 by 50 mm for stability and 2.1 by 100 mm for metabolism, 1.7 µm column, 45 °C temperature, flow rate 0.5 mL/min) was used. For stability studies, the detection was performed in MRM (ESI positive, Q1/Q3 330.16/152.00, Cone Voltage 45 V; Extractor 5 V; Capillary 3.4 kV), while for metabolism studies, analysis was performed in Auto MS/MS mode (ESI positive; Capillary 109 V; Dry Temp 350 °C; Nebulizer 30 psi; Dry gas 10 L/min; HV capillary 500 V; Mass Accu time 500 µs; Mass range MS scan 100–600 amu, MS/MS 50–450 amu).
For stability and metabolism studies, test compounds were dissolved in DMSO, diluted at the final concentration of 1 µM, and pre-incubated in duplicate for 10 min at 37 °C in potassium phosphate buffer, pH 7.4, 3 mM MgCl2, with rat, mouse, and human hepatic microsomes (Xenotech Europe, Pfungstadt, Germany) at the final concentration of 0.5 mg/mL. The reaction was then started by adding the cofactor mixture of NADP, Glc6P, and G6P-DH, in the presence of UDPGA 1 mM in human microsomes to promote glucuronide formation. Acetonitrile (with verapamil as internal standard) was added to the samples at the times time 0 and 30 min to stop the reaction. Samples were then centrifuged and the supernatants analysed and quantified by LC-MS/MS. Reference compounds of known metabolic stability, 7-ethoxycoumarin (7-EC) and propranolol, were used as controls.
The percentage of the area of test compounds remaining after 30 min incubation was calculated in respect to the area of compounds at time = 0 min. […] Samples were re-analyzed by acquiring the daughter scan of the potential metabolites found during the full scan acquisition.

The nature of series [3]: Pharmacokinetics in CD-1 mice after oral administration. The class given is in vivo, mouse. To be noted: male, CD-1, mouse, in vivo, po, 10 mg/kg. Here is the method: Samples from the pharmacokinetic studies were analyzed under the following conditions: UPLC interfaced with a Premiere XE triple Quadrupole, Waters. A gradient from 2 to 100% (Water, MeOH, 5 mM Ammonium Acetate) over 1.3 min was used in Acquity HSS T3 (dimensions 2.1 by 50 mm, 1.8 µm column, 40 °C temperature, flow rate 0.5 mL/min). Detection was performed in MRM (ESI positive, Q1/Q3 330.16/152.00, Cone Voltage 45 V; Extractor 5 V; Capillary 3.4 kV). The limit of detection was 1 ng/mL. Pharmacokinetic parameters were determined by Non-Compartmental Analysis, using the linear trapezoidal rule and uniform weight.
Pharmacokinetic data were collected in mice by testing the racemate and the enantiomers at the same single dose, and vehicle-utilized for in vivo studies (see composition in paragraph 4.4). Briefly, male CD-1 mice (Charles River Laboratories) weighing 18–22 g received single dose (10 mg/kg) oral administrations of the AM1 racemate and single enantiomers, each dissolved in SSV. For each experiment, twenty-four mice/dose and three mice/time-point were used. Blood samples were collected at eight selected time-points (15, 30 and 60 min; 2, 4, 6, 8 and 24 h) under ethyl ether anaesthesia. The heparinized tubes containing blood samples were immediately placed on ice and centrifuged, and the supernatant collected and frozen at −80 °C prior to analysis. Pharmacokinetic plasma samples (spiked with internal standard) were filtered (Sirocco filter plate, Waters) under vacuum, and 5 µL analysed by LC-MS/MS.

Series [4] relates to P. berghei ANKA transmission stages in Anopheles stephensi. Briefly: Transmission-blocking test, P. berghei/A. stephensi model. It counts as in vivo. To be noted: 50 mg/kg oral. Here is the method:
(−)-AM1 was also tested in transmission-blocking and prophylactic studies using the P. berghei/A. stephensi model as described, with a few modifications.
For the transmission-blocking test, four BALB/c female mice (18–20 g) were infected i.p. with 10^7 P. berghei-infected red blood cells. Four days later, once confirmed for gametocyte carriage, two mice were treated with 50 mg/kg (−)-AM1, through the oral administration of 500 µL of a methylcellulose suspension, obtained by dissolving a 20 mg/mL ethanol stock solution in 0.5% methylcellulose to a final 9% ethanol concentration. Two mice received the vehicle only as controls. One hour after the treatment, mice were anesthetized and exposed to the bites of 100 sugar-starved female mosquitoes, at 20 °C. Ten days after the blood meal, samples of mosquito midguts from each treatment (n = 40) were dissected and P. berghei oocysts were manually counted using light microscopy at 400× magnification. Oocyst numbers were log-transformed and the geometric means were compared using the Student’s t-test.

Molecules are shown by their SMILES. Values joined by “and” are separate entries in the source; they are usually repeats but may differ in a detail not shown here. Equal entries are not always repeated.

`Clc1ccc2c(NC[C@@H]3CCCN4CCCC[C@H]34)ccnc2c1` [(−)-AM1, 7-chloro-N-(((1S,9aR)-octahydro-1H-quinolizin-1-yl)methyl)quinolin-4-amine]: the IC50 in series [1] worked out at 16.7 nM. In the series on P. falciparum W-2 (CQ-R), the concentration for half-maximal inhibition (IC50) was 53.7 nM. Also, the “Metabolic products detected, in vitro microsomes, rat” value in series [2] is on record as “+”. In series [3], the area under the curve AUC(0-t) was 0.313 µM·h and 103 ng·h/mL; the maximum concentration (Cmax) was 84 nM and 27.6 ng/mL; the MRT last is 3.33 h; the Tmax was 0.25 h. Besides, the “infection intensity, average number of oocysts per midgut” value in series [4] (BALB/c mice, read after 10 days, control 39.17, p = 0.24) is 54.11 (CI95 39.77–68.45) oocysts. Moreover, in series [4] (P. berghei/A. stephensi model), the transmission-blocking activity entry was “does not show transmission-blocking or prophylactic activity”.
